In US20100298141A1, “SUBSTITUTED PYRIDINE N-OXIDE HERBICIDES” (E. I. DU PONT DE NEMOURS AND COMPANY, priority 2007, published 2010):

Experiments:
Assay in all cases: Test F preemergence test
Settings in all cases: scale 0 to 100
mustard = type: in vivo, Brassica nigra
Summary of the method: (§1)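 Compounds in a non-phytotoxic solvent formulation with surfactant were applied before emergence after sowing, or, for sugarcane, also postemergence. Evaluation was visual, against controls, after 14 to 21 greenhouse days.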

common mallow = type: in vivo, Malva sylvestris
Summary of the method: as §1

dallisgrass = type: in vivo, Paspalum dilatatum
Summary of the method: as §1

bermudagrass = type: in vivo, Cynodon dactylon
Summary of the method: as §1

guineagrass = type: in vivo, Panicum maximum
Summary of the method: as §1

common chickweed = type: in vivo, Stellaria media
Summary of the method: as §1

quackgrass = type: in vivo, Elytrigia repens
Summary of the method: as §1

common purslane = type: in vivo, Portulaca oleracea
Summary of the method: as §1

barnyardgrass = type: in vivo, Echinochloa crus-galli
Summary of the method: as §1

prickly sida = type: in vivo, Sida spinosa
Summary of the method: as §1

kochia = type: in vivo, Kochia scoparia
Summary of the method: as §1

common groundsel = type: in vivo, Senecio vulgaris
Summary of the method: as §1

purple nutsedge = type: in vivo, Cyperus rotundus
Summary of the method: as §1

broadleaf signalgrass = type: in vivo, Brachiaria platyphylla
Summary of the method: as §1

annual bluegrass = type: in vivo, Poa annua
Summary of the method: as §1

pitted morningglory = type: in vivo, Ipomoea lacunosa
Summary of the method: as §1

Virginia dayflower = type: in vivo, Commelina virginica
Summary of the method: as §1

Canada horseweed = type: in vivo, Conyza canadensis
Summary of the method: as §1

naked crabgrass = type: in vivo, Digitaria nuda
Summary of the method: as §1

Cc1cc[n+]([O-])c(S(=O)(=O)Cc2c(C(F)(F)F)nn(C)c2Cl)c1 [Compound 19]
30: Prickly Sida plant response rating (prickly sida; 62 g ai/ha, Preemergence) | Dayflower plant response rating (Virginia dayflower; 62 g ai/ha, Preemergence)
90: Dallisgrass plant response rating (dallisgrass; 125 g ai/ha, preemergence) | Barnyardgrass plant response rating (barnyardgrass; 62 g ai/ha, Preemergence) | Dayflower plant response rating (Virginia dayflower; 125 g ai/ha, preemergence)
0: Plant response rating, Black Mustard (mustard; Preemergence, 16 g ai/ha) | Mallow plant response rating (common mallow; 62 g ai/ha, Preemergence) | Plant response rating, Mallow (common mallow; Preemergence, 16 g ai/ha) | Plant response rating, Mallow (common mallow; Preemergence, 31 g ai/ha) | Plant response rating, Dallisgrass (dallisgrass; Preemergence, 16 g ai/ha) | Plant response rating, Bermudagrass (bermudagrass; Preemergence, 16 g ai/ha) | Chickweed plant response rating (common chickweed; 62 g ai/ha, Preemergence) | Plant response rating, Chickweed (common chickweed; Preemergence, 16 g ai/ha) | Plant response rating, Chickweed (common chickweed; Preemergence, 31 g ai/ha) | Plant response rating, Quackgrass (quackgrass; Preemergence, 16 g ai/ha) | Plant response rating, Quackgrass (quackgrass; Preemergence, 31 g ai/ha) | Purslane plant response rating (common purslane; 62 g ai/ha, Preemergence) | Purslane plant response rating (common purslane; 125 g ai/ha, preemergence) | Plant response rating, Purslane (common purslane; Preemergence, 16 g ai/ha) | Plant response rating, Purslane (common purslane; Preemergence, 31 g ai/ha) | Plant response rating, Prickly Sida (prickly sida; Preemergence, 16 g ai/ha) | Kochia plant response rating (kochia; 62 g ai/ha, Preemergence) | Plant response rating, Kochia (kochia; Preemergence, 16 g ai/ha) | Plant response rating, Kochia (kochia; Preemergence, 31 g ai/ha) | Plant response rating, Groundsel (common groundsel; Preemergence, 16 g ai/ha) | Plant response rating, Groundsel (common groundsel; Preemergence, 31 g ai/ha) | Plant response rating, Purple Nutsedge (purple nutsedge; Preemergence, 16 g ai/ha) | Plant response rating, Purple Nutsedge (purple nutsedge; Preemergence, 31 g ai/ha) | Bluegrass plant response rating (annual bluegrass; 62 g ai/ha, Preemergence) | Plant response rating, Bluegrass (annual bluegrass; Preemergence, 16 g ai/ha) | Plant response rating, Bluegrass (annual bluegrass; Preemergence, 31 g ai/ha) | Morningglory plant response rating (pitted morningglory; 62 g ai/ha, Preemergence) | Morningglory plant response rating (pitted morningglory; 125 g ai/ha, preemergence) | Plant response rating, Morningglory (pitted morningglory; Preemergence, 16 g ai/ha) | Plant response rating, Morningglory (pitted morningglory; Preemergence, 31 g ai/ha) | Plant response rating, Dayflower (Virginia dayflower; Preemergence, 16 g ai/ha) | Plant response rating, Dayflower (Virginia dayflower; Preemergence, 31 g ai/ha) | Horseweed plant response rating (Canada horseweed; 62 g ai/ha, Preemergence) | Plant response rating, Horseweed (Canada horseweed; Preemergence, 16 g ai/ha) | Plant response rating, Horseweed (Canada horseweed; Preemergence, 31 g ai/ha)
60: Bermudagrass plant response rating (bermudagrass; 62 g ai/ha, Preemergence) | Quackgrass plant response rating (quackgrass; 125 g ai/ha, preemergence) | Prickly Sida plant response rating (prickly sida; 125 g ai/ha, preemergence) | Purple Nutsedge plant response rating (purple nutsedge; 62 g ai/ha, Preemergence) | Plant response rating, Signalgrass (broadleaf signalgrass; Preemergence, 31 g ai/ha)
15: Groundsel plant response rating (common groundsel; 62 g ai/ha, Preemergence)
65: Dallisgrass plant response rating (dallisgrass; 62 g ai/ha, Preemergence) | Signalgrass plant response rating (broadleaf signalgrass; 62 g ai/ha, Preemergence)
20: Plant response rating, Black Mustard (mustard; Preemergence, 31 g ai/ha) | Plant response rating, Dallisgrass (dallisgrass; Preemergence, 31 g ai/ha) | Plant response rating, Prickly Sida (prickly sida; Preemergence, 31 g ai/ha)
40: Mallow plant response rating (common mallow; 125 g ai/ha, preemergence) | Plant response rating, Bermudagrass (bermudagrass; Preemergence, 31 g ai/ha) | Quackgrass plant response rating (quackgrass; 62 g ai/ha, Preemergence)
80: Plant response rating, Guineagrass (guineagrass; Preemergence, 31 g ai/ha) | Plant response rating, Barnyardgrass (barnyardgrass; Preemergence, 31 g ai/ha)
50: Plant response rating, Guineagrass (guineagrass; Preemergence, 16 g ai/ha)
70: Plant response rating, Barnyardgrass (barnyardgrass; Preemergence, 16 g ai/ha) | Groundsel plant response rating (common groundsel; 125 g ai/ha, preemergence) | Purple Nutsedge plant response rating (purple nutsedge; 125 g ai/ha, preemergence) | Plant response rating, Crabgrass, Naked (naked crabgrass; Preemergence, 16 g ai/ha) | Plant response rating, Crabgrass, Naked (naked crabgrass; Preemergence, 31 g ai/ha)
95: Bermudagrass plant response rating (bermudagrass; 125 g ai/ha, preemergence) | Signalgrass plant response rating (broadleaf signalgrass; 125 g ai/ha, preemergence) | Bluegrass plant response rating (annual bluegrass; 125 g ai/ha, preemergence)
75: Chickweed plant response rating (common chickweed; 125 g ai/ha, preemergence)
98: Barnyardgrass plant response rating (barnyardgrass; 125 g ai/ha, preemergence)
100: Black Mustard plant response rating (mustard; 62 g ai/ha, Preemergence) | Black Mustard plant response rating (mustard; 125 g ai/ha, preemergence) | Guineagrass plant response rating (guineagrass; 62 g ai/ha, Preemergence) | Guineagrass plant response rating (guineagrass; 125 g ai/ha, preemergence) | Kochia plant response rating (kochia; 125 g ai/ha, preemergence) | Horseweed plant response rating (Canada horseweed; 125 g ai/ha, preemergence) | Crabgrass, Naked plant response rating (naked crabgrass; 62 g ai/ha, Preemergence) | Crabgrass, Naked plant response rating (naked crabgrass; 125 g ai/ha, preemergence)
